How the values were obtained:
[1] = system: PKD; conditions: reported values, no reference given; cited from earlier work
[2] = molecular target: T1, PKCβI (Homo sapiens, UniProt P05771); experiment: In vitro radiometric PKC kinase assay; type: biochemical
T1 construct: purchased Cell Signaling Technology
Description: (§1) The PKC in vitro kinase assays were performed as described previously.
(§2) To determine whether the novel analogs retained this specificity, we tested the compounds against their ability to inhibit PKCα, -βI, -δ, and CAMKIIα in in vitro radiometric kinase activity assays. All analogs were poor inhibitors of PKCα and PKCβI, with only slight (< 50%) inhibitory activity at 10 μM concentration (Fig. 5A and 5B).
(§3) Inhibition of PKCα (A), PKCβI (B), PKCδ (C), or CAMKIIα (D) by each of the 5 analogs was determined at 100 nM, 1 μM, and 10 μM concentrations. In the PKC assays, the potent PKC inhibitor GF109203X was used as a control. Data are the mean ± S.E.M. of three independent experiments. Statistical significance was determined using the unpaired t-test. ns, not statistically significant; *, p < 0.05; **, p < 0.01; ***, p < 0.001.

[3] = molecular target: T2, PKCα (Homo sapiens, UniProt P17252); experiment: In vitro radiometric PKC kinase assay; type: biochemical
T2 construct: purchased Cell Signaling Technology and Calbiochem
Description: as §1, §2, §3

[4] = molecular target: T3, PKCδ (Homo sapiens, UniProt Q05655); experiment: In vitro radiometric PKC kinase assay; type: biochemical
T3 construct: purchased Enzo Life Sciences
Description: as §1
To determine whether the novel analogs retained this specificity, we tested the compounds against their ability to inhibit PKCα, -βI, -δ, and CAMKIIα in in vitro radiometric kinase activity assays.
Inhibition of PKCα (A), PKCβI (B), PKCδ (C), or CAMKIIα (D) by each of the 5 analogs was determined at 100 nM, 1 μM, and 10 μM concentrations. […] Data are the mean ± S.E.M. of three independent experiments. Statistical significance was determined using the unpaired t-test. ns, not statistically significant; *, p < 0.05; **, p < 0.01; ***, p < 0.001.

T3 sequence (Q05655 whole entry): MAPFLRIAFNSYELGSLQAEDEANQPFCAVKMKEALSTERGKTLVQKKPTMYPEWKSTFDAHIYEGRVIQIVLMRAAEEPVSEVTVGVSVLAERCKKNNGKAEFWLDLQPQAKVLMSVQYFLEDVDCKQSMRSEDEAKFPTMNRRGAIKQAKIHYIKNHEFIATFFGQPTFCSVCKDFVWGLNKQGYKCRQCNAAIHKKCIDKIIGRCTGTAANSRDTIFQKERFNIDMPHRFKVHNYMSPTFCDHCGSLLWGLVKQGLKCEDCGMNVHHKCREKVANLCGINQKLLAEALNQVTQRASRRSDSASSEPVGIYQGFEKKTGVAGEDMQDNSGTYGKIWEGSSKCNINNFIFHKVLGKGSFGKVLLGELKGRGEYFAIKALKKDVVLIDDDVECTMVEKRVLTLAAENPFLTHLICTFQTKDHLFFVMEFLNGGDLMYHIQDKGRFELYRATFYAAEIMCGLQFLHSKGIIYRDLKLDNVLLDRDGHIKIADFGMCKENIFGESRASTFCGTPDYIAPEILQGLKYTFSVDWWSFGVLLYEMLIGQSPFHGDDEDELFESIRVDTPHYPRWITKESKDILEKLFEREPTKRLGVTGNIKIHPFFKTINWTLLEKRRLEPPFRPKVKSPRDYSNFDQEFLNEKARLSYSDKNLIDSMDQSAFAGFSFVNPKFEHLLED
T1 sequence (P05771 whole entry): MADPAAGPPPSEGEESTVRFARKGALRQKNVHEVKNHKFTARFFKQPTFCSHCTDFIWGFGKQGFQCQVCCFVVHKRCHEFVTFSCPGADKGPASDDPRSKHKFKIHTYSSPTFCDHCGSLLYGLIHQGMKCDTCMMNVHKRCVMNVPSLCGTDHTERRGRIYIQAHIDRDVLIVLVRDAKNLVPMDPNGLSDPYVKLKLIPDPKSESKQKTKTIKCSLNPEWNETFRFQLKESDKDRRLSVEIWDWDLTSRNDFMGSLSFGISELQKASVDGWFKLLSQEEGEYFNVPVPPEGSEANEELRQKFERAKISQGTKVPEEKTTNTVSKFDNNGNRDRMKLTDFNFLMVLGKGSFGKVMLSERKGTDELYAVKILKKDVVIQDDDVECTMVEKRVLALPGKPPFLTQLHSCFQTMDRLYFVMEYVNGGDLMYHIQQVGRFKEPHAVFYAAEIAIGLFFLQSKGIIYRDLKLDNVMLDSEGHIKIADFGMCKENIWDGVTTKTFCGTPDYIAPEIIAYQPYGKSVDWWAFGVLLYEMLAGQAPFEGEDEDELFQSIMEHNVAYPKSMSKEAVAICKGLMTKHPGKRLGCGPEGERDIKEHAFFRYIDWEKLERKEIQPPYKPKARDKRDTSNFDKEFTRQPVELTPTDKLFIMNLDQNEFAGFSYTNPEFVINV

Compound | IC50 [1] [µM] | inhibition of PKCβI (in words) [2] | inhibition of PKCα (in words) [3] | inhibition of PKCδ (in words) [4]
Cn1c2ccccc2c2c3c(c4c5ccccc5n(CCC#N)c4c21)CNC3=O [Gö6976] | 0.02 | – | – | –
CN(C)CCCn1cc(C2=C(c3c[nH]c4ccccc34)C(=O)NC2=O)c2ccccc21 [GF109203X] | – | strong inhibition | strong inhibition | strong inhibition
COC(=O)[C@@]1(O)C[C@H]2O[C@]1(C)n1c3ccccc3c3c4c(c5c6ccccc6n2c5c31)C(=O)NC4 [Compound K252a] | 0.007 | – | – | –
